This passage reports EC50 results from patent US20240246964A1 (Arbutus Biopharma Corporation, priority 2021, published 2024).

For this assay, the target named is human PD-L1 (Homo sapiens (Human), UniProt Q9NZQ7). The experiment in a line: T cell activation luciferase reporter cell culture system (T Cell Activation Assay). As to conditions: luciferase reporter assay; PD-L1 aAPC/CHO-K1 cells with PD-1 effector Jurkat T cells. The class given is cell-based.
human PD-L1, sequence (Q9NZQ7 19-290): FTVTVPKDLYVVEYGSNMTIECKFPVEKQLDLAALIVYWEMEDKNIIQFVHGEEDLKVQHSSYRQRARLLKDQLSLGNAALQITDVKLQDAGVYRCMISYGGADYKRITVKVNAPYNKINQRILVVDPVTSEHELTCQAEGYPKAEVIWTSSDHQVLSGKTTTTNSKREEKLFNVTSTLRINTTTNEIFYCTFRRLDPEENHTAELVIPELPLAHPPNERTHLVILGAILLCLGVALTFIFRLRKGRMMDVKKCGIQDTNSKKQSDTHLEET

As for `COc1cc(-c2nccc(-c3cccc(-c4ccc(CNC5CCN(C(C)=O)CC5)c(OC)n4)c3Cl)c2Cl)ccc1CN1CC2(CC(C(=O)O)C2)C1` [Example 243, 2-(4-(4-(3-(5-(((1-acetylpiperidin-4-yl)amino)methyl)-6-methoxypyridin-2-yl)-2-chlorophenyl)-3-chloropyridin-2-yl)-2-methoxybenzyl)-2-azaspiro[3.3]heptane-6-carboxylic acid], the EC50 amounted to 0.104 µM.

For the molecule `COc1cc(-c2nccc(-c3cccc(-c4ccc(CNC5CCN(C(C)=O)CC5)c(OC)n4)c3Cl)c2Cl)ccc1CN1CC2(CNC(=O)C2)C1` [Example 244, 2-(4-(4-(3-(5-(((1-acetylpiperidin-4-yl)amino)methyl)-6-methoxypyridin-2-yl)-2-chlorophenyl)-3-chloropyridin-2-yl)-2-methoxybenzyl)-2,6-diazaspiro[3.4]octan-7-one], the midpoint of the response, the EC50, lay at 0.0252 µM.

The molecule `COc1cc(-c2nccc(-c3cccc(-c4ccc(CNC5CCN(C(C)=O)CC5)c(OC)n4)c3Cl)c2Cl)ccc1CN1CC[C@H](C(=O)OC(C)C)C1` [Example 245, Isopropyl (S)-1-(4-(4-(3-(5-(((1-acetylpiperidin-4-yl)amino)methyl)-6-methoxypyridin-2-yl)-2-chlorophenyl)-3-chloropyridin-2-yl)-2-methoxybenzyl)pyrrolidine-3-carboxylate] returned an EC50 of 0.187 µM.

`COc1cc(-c2nccc(-c3cccc(-c4ccc5c(CNC6CCN(C(C)=O)CC6)cn(C)c5n4)c3Cl)c2Cl)ccc1CNC1CCN(C(C)=O)CC1` [Example 246, 1-(4-((4-(4-(3-(3-(((1-acetylpiperidin-4-yl)amino)methyl)-1-methyl-1H-pyrrolo[2,3-b]pyridin-6-yl)-2-chlorophenyl)-3-chloropyridin-2-yl)-2-methoxybenzyl)amino)piperidin-1-yl)ethan-1-one] registered an EC50 of 0.101 µM.

`COc1nc(-c2ccnc(-c3cccc4c3CC[C@@H]4Oc3nc(OC)c(CN4CC5(C4)CN(C(C)=O)C5)cc3C(F)(F)F)c2Cl)ccc1CN1CC2(C1)CN(C(C)=O)C2` [Example 248, (S)-1-(6-((6-((4-(5-((6-Acetyl-2,6-diazaspiro[3.3]heptan-2-yl)methyl)-3′-chloro-6-methoxy-[2,4′-bipyridin]-2′-yl)-2,3-dihydro-1H-inden-1-yl)oxy)-2-methoxy-5-(trifluoromethyl)pyridin-3-yl)methyl)-2,6-diazaspiro[3.3]heptan-2-yl)ethan-1-one] returned an EC50 of 0.596 µM.

Take `COc1cc(-c2nccc(-c3cccc(-c4ccc(CN5CC6(C5)CN(C(C)=O)C6)c(OC)n4)c3Cl)c2Cl)cc2c1CN(CCCF)CC2` [Example 249, 1-(6-((6-(2-Chloro-3-(3-chloro-2-(2-(3-fluoropropyl)-8-methoxy-1,2,3,4-tetrahydroisoquinolin-6-yl)pyridin-4-yl)phenyl)-2-methoxypyridin-3-yl)methyl)-2,6-diazaspiro[3.3]heptan-2-yl)ethan-1-one]: the 50% effective concentration (EC50) turned out to be 0.0817 µM.

`COc1cc(-c2nccc(-c3cccc(-c4ccc(CN5CC6(CNC(=O)C6)C5)c(OC)n4)c3Cl)c2Cl)cc2c1CN(CCCF)CC2` [Example 250, 2-((6-(2-Chloro-3-(3-chloro-2-(2-(3-fluoropropyl)-8-methoxy-1,2,3,4-tetrahydroisoquinolin-6-yl)pyridin-4-yl)phenyl)-2-methoxypyridin-3-yl)methyl)-2,6-diazaspiro[3.4]octan-7-one] registered an EC50 of 0.031 µM.

On to `COc1cc(-c2nccc(-c3cccc(-c4ccc(CNC5CC6(COC6)C5)c(OC)n4)c3Cl)c2Cl)cc2c1CN(CCCF)CC2` [Example 251, N-((6-(2-Chloro-3-(3-chloro-2-(2-(3-fluoropropyl)-8-methoxy-1,2,3,4-tetrahydroisoquinolin-6-yl)pyridin-4-yl)phenyl)-2-methoxypyridin-3-yl)methyl)-2-oxaspiro[3.3]heptan-6-amine], for which the EC50 was determined as 0.117 µM.

On to `COc1cc(-c2nccc(-c3cccc(-c4ccc(CNCC5(CO)CC5)c(OC)n4)c3Cl)c2Cl)cc2c1CN(CCCF)CC2` [Example 252, (1-((((6-(2-Chloro-3-(3-chloro-2-(2-(3-fluoropropyl)-8-methoxy-1,2,3,4-tetrahydroisoquinolin-6-yl)pyridin-4-yl)phenyl)-2-methoxypyridin-3-yl)methyl)amino)methyl)cyclopropyl)methanol], for which the EC50 was 0.0541 µM.

As for `COc1nc(-c2ccnc(-c3cccc4c3CC[C@@H]4Oc3nc(OC)c(CNC[C@H](C)O)cc3C(F)(F)F)c2Cl)ccc1CNC[C@H](C)O` [Example 253, (S)-1-(((3′-Chloro-2′-((S)-1-((5-((((S)-2-hydroxypropyl)amino)methyl)-6-methoxy-3-(trifluoromethyl)pyridin-2-yl)oxy)-2,3-dihydro-1H-inden-4-yl)-6-methoxy-[2,4′-bipyridin]-5-yl)methyl)amino)propan-2-ol], the response was half-maximal at 0.0392 µM (EC50).

Molecule `COc1nc(-c2cccc(-c3ccnc(-c4ccc5c(c4)CCC[C@H]5NC[C@@H]4CCC(=O)N4)c3Cl)c2Cl)ccc1CN1CC2(CNC(=O)C2)C1` [Example 255, 2-((6-(2-chloro-3-(3-chloro-2-((R)-5-((((S)-5-oxopyrrolidin-2-yl)-methyl)-amino)-5,6,7,8-tetrahydronaphthalen-2-yl)pyridin-4-yl)phenyl)-2-methoxypyridin-3-yl)methyl)-2,6-diazaspiro[3.4]octan-7-one] gave a 50% effective concentration (EC50) of 0.305 µM.

For the molecule `COc1nc(-c2cccc(-c3ccnc(-c4ccc5c(c4)CCC[C@H]5NC[C@@H]4CCC(=O)N4)c3Cl)c2Cl)ccc1CNC[C@H](C)O` [Example 256, (S)-5-((((R)-6-(3-Chloro-4-(2-chloro-3-(5-((((S)-2-hydroxypropyl)amino)methyl)-6-methoxypyridin-2-yl)phenyl)pyridin-2-yl)-1,2,3,4-tetrahydronaphthalen-1-yl)amino)methyl)pyrrolidin-2-one], a half-maximal response (EC50) required 0.168 µM.

As to `COc1nc(-c2cccc(-c3ccnc(-c4ccc5c(c4)CCC[C@H]5NC[C@@H]4CCC(=O)N4)c3Cl)c2Cl)ccc1CN[C@H]1CCOC1=O` [Example 257, (S)-5-((((R)-6-(3-Chloro-4-(2-chloro-3-(6-methoxy-5-((((S)-2-oxotetrahydrofuran-3-yl)amino)methyl)pyridin-2-yl)phenyl)pyridin-2-yl)-1,2,3,4-tetrahydronaphthalen-1-yl)amino)methyl)pyrrolidin-2-one], the EC50 is not below 10 µM.

`COc1nc(-c2cccc(-c3ccnc(-c4cc(OC)c5nc(CNC[C@@H]6CCC(=O)N6)nn5c4)c3Cl)c2Cl)ccc1CNC[C@@H]1CCC(=O)N1` [Example 258, (S)-5-((((6-(2-chloro-3-(3-chloro-2-(8-methoxy-2-(((((S)-5-oxopyrrolidin-2-yl)methyl)amino)methyl)-[1,2,4]triazolo[1,5-a]pyridin-6-yl)pyridin-4-yl)phenyl)-2-methoxypyridin-3-yl)methyl)amino)methyl)pyrrolidin-2-one] displayed a half-maximal effective concentration (EC50) of 0.0754 µM.

The molecule `COc1nc(-c2cccc(-c3ccnc(-c4cc(OC)c5nc(CN6CC(C)(O)C6)nn5c4)c3Cl)c2Cl)ccc1CNC[C@@H]1CCC(=O)N1` [Example 259, (S)-5-((((6-(2-Chloro-3-(3-chloro-2-(2-((3-hydroxy-3-methylazetidin-1-yl)methyl)-8-methoxy-[1,2,4]triazolo[1,5-a]pyridin-6-yl)pyridin-4-yl)phenyl)-2-methoxypyridin-3-yl)methyl)amino)methyl)pyrrolidin-2-one] displayed an EC50 of 0.0586 µM.

`COc1nc(-c2cccc(-c3ccnc(-c4cc(OC)c5nc(CN[C@H]6CC[C@H](O)CC6)nn5c4)c3Cl)c2Cl)ccc1CNC[C@@H]1CCC(=O)N1` [Example 260, (S)-5-((((6-(2-Chloro-3-(3-chloro-2-(2-((((1r,4r)-4-hydroxycyclohexyl)amino)methyl)-8-methoxy-[1,2,4]triazolo[1,5-a]pyridin-6-yl)pyridin-4-yl)phenyl)-2-methoxypyridin-3-yl)methyl)amino)methyl)pyrrolidin-2-one]: the EC50 was found to be 0.0268 µM.

In the case of `COc1nc(-c2cccc(-c3ccnc(-c4cc(OC)c5nc(CN6CC(C(=O)O)C6)nn5c4)c3Cl)c2Cl)ccc1CNC[C@@H]1CCC(=O)N1` [Example 261, (S)-1-((6-(3-Chloro-4-(2-chloro-3-(6-methoxy-5-((((5-oxopyrrolidin-2-yl)methyl)amino)methyl)pyridin-2-yl)phenyl)pyridin-2-yl)-8-methoxy-[1,2,4]triazolo[1,5-a]pyridin-2-yl)methyl)azetidine-3-carboxylic acid], the half-maximal effective concentration (EC50) was 0.126 µM.

Turning to `COc1nc(-c2cccc(-c3ccnc(-c4cc(OC)c5nc(CNCCC6(C(=O)O)CC6)nn5c4)c3Cl)c2Cl)ccc1CNC[C@@H]1CCC(=O)N1` [Example 262, (S)-1-(2-(((6-(3-Chloro-4-(2-chloro-3-(6-methoxy-5-((((5-oxopyrrolidin-2-yl)methyl)amino)methyl)pyridin-2-yl)phenyl)pyridin-2-yl)-8-methoxy-[1,2,4]triazolo[1,5-a]pyridin-2-yl)methyl)amino)ethyl)cyclopropane-1-carboxylic acid], the EC50 stood at 0.0828 µM.

`COc1cc(-c2nccc(-c3cccc(-c4ccc5c(CN(C)C6CCN(C(C)=O)CC6)cn(C)c5n4)c3Cl)c2Cl)ccc1CNC1CCN(C(C)=O)CC1` [Example 264, 1-(4-((4-(4-(3-(3-(((1-acetylpiperidin-4-yl)(methyl)amino)methyl)-1-methyl-1H-pyrrolo[2,3-b]pyridin-6-yl)-2-chlorophenyl)-3-chloropyridin-2-yl)-2-methoxybenzyl)amino)piperidin-1-yl)ethan-1-one]: a half-maximal response (EC50) required 0.0477 µM.

`COc1nc(-c2cccc(-c3ccnc(-c4ccc5c(c4)CCC[C@H]5NC[C@@H]4CCC(=O)N4)c3Cl)c2Cl)ccc1CN[C@@H](CCO)C(=O)O` [Example 265, ((6-(2-Chloro-3-(3-chloro-2-((R)-5-((((S)-5-oxopyrrolidin-2-yl)methyl)amino)-5,6,7,8-tetrahydronaphthalen-2-yl)pyridin-4-yl)phenyl)-2-methoxypyridin-3-yl)methyl)-L-homoserine] showed a concentration for a half-maximal effect (EC50) of 0.368 µM.
